Here are results for 4 compounds from US20100260753A1, “AMINOFLAVONE (NSC 686288) AND COMBINATIONS THEREOF FOR TREATING BREAST CANCER” (priority 2007, published 2010).

Structures are written as SMILES. Values joined by “and” are separate entries in the source; they are usually repeats but may differ in a detail not shown here. Equal entries are not always repeated. Where two headings read alike, the source gives them in different places.

One experiment concerns MCF-7 cells. Description: aminoflavone combination with estrogen receptor antagonists in MCF-7 cells. Format: cell-based, human. To be noted: administered with aminoflavone (FIG. 9). How it is done: To examine the role of estrogen receptor in aminoflavone sensitivity, the inventors combined aminoflavone with a fixed concentration (100 nM) of the “pure” antiestrogen Faslodex® in MCF-7 cells.

In experiment [1] the test system is MCF-7 TAM1. Description: MTT proliferation assay, MCF-7 TAM1. The format is cell-based, human. How it is done: (§1) FIG. 2B depicts an MTT assay (10 days) comparing the sensitivity of parental MCF-7 to aminoflavone and the tamoxifen resistant subclone MCF-7TAM1 to 4-OH tamoxifen (TAM) and aminoflavone respectively. Cells were grown in medium with charcoal-stripped fetal calf serum supplemented with 10 nM E2, estrogen. MCF-7 cells that have become resistant to tamoxifen by either selection (MCF-7TAM1, FIG. 2B), or genetic manipulation (MCF-7Her2-18, Table 1), remain sensitive to aminoflavone. An understanding of how MCF-7 DF203r and MDA-MB-231 differ from MCF-7 in the dynamics and distribution of their AhR and AhR associated signaling complexes may allow the clarification of the basis for aminoflavone sensitivity and resistance.
(§2) MCF-7Her2-18 is a variant of MCF-7 over-expressing the Her2/neu oncoprotein. As a result, it is resistant to Herceptin® (Shou et al. 2004 “Mechanisms of tamoxifen resistance: increased estrogen receptor-HER2/neu cross-talk in ER/HER2-positive breast cancer.” J Nat Cancer Inst 96: 926-35) and tamoxifen. […] (1999 “A multidrug resistance transporter from human MCF-7 breast cancer cells.” Proc Natl Acad Sci USA. 95: 15665-70.) The IC50s (16-20 nM) and IC100s of aminoflavone (˜300 nM) were nearly identical in MCF-7Her2-18 and parental MCF-7 cells (See Table 1, below). In MCF-7TAM1 cells, which were serum starved and then treated for 10 days with E2 alone, 4-OH-tamoxifen plus E2, and aminoflavone plus E2, the concentration of 4-OH-tamoxifen causing growth inhibition was >10 μM.
(§3) Table 1 below summarizes the results of the MTT (methyl tetrazolium) tests that were performed to assay cell growth in a panel breast cell lines and their characteristics. Both, MCF-7Her2-18 and MCF-7TAM1 express estrogen receptor. […] The ER(−) cells MDA-MB-231 and MCF10A with nuclear AhR are several log-fold less sensitive to aminoflavone (Table 1, FIG. 4). These observations confirm that aminoflavone is valuable in patients who have lost clinical benefit from estrogen receptor antagonists. […]
(Tetrazolium dyes change colour on reduction, which living cells bring about.)

Experiment [2] has as its system MCF-7 HER2-18. Briefly: MTT proliferation assay, MCF-7 HER2-18. The format is cell-based, human. The settings on record: mean of three independent experiments. How it is done: as §1, §2, §3
A further experiment relates to NCI 60 cell line. The settings on record: "resistant" cell lines; cited from earlier work.
The subject of experiment [3] is MCF-7. Description: γ-H2AX foci induction, MCF-7. The settings on record: IC50 concentrations, 24 hrs after exposure. Format: cell-based, human. An excerpt: (§4) Previous studies have reported that the occurrence of foci of phosphorylated γ-H2AX is indicative of the cellular response to aminoflavone in MCF-7 cells (Meng et al.). γ-H2AX phosphorylation is an early indicator of DNA double strand breaks and thus, induction of DNA-damage response in cells.
(§5) Phosphorylation of the histone variant γ-H2AX is a rapid and sensitive response to DNA double strand breaks. Aminoflavone induces γ-H2AX foci in drug sensitive MCF-7 and MCF-7TAM1 cells at IC50 concentrations 24 hrs after exposure, but not in aminoflavone resistant MDA-MB-231 breast cancer cells. γ-H2AX was detected by using a FITC-labeled anti-mouse secondary antibody (green) and its nuclear expression is shown by co-localization with the nuclear stain DAPI (blue). AhR was detected with a TRITC-labeled (red) secondary antibody.

Experiment [4] deals with MCF-7 TAM1. Briefly: γ-H2AX foci induction, MCF-7 TAM1. To be noted: IC50 concentrations, 24 hrs after exposure. Format: cell-based, human.
Description: as §4, §5

In a further experiment the test system is MCF-7 xenografts. The settings on record: 120 mg/kg intraperitoneally, 5 days per week; cited from earlier work.
For another experiment, the system named is LTLC. Description: growth inhibition in hormone refractory LTLC (FIGS. 5A and 5B). Format: cell-based, human. To be noted: LTLC hormone refractory cell line.
The test system of experiment [5] is MCF10A. Briefly: γ-H2AX foci induction, MCF10A. Format: cell-based, human.
For experiment [6], the system named is MDA-MB-231. Briefly: MTT proliferation assay, MDA-MB-231. Format: cell-based, human. How it is done:
(§6) FIG. 2A depicts in vitro MTT proliferation assay (5 days) showing aminoflavone activity in ER(+) and ER(−) breast cancer cell lines.
(§7) Table 1 below summarizes the results of the MTT (methyl tetrazolium) tests that were performed to assay cell growth in a panel breast cell lines and their characteristics. Both, MCF-7Her2-18 and MCF-7TAM1 express estrogen receptor. […] The ER(−) cells MDA-MB-231 and MCF10A with nuclear AhR are several log-fold less sensitive to aminoflavone (Table 1, FIG. 4). These observations confirm that aminoflavone is valuable in patients who have lost clinical benefit from estrogen receptor antagonists.
(§8) The inhibitory concentrations 50% (IC50) and 100% (IC100) listed in Table 1 represent the mean of three independent experiments. The estrogen receptor and AhR assays were performed three times.

The next experiment relates to ER+MDA-MB-231 cells. Description: aminoflavone sensitivity of MDA-MB-231 stably transfected with human estrogen receptor-α. The format is cell-based.
In another experiment the test system is MCF-7DF203r. Briefly: MTT proliferation assay (5 days), MCF-7DF203r. The format is cell-based, human. The settings on record: MTT 5 days; MCF-7 subclone with acquired resistance to benzothiazoles (DF203).
Description: (Loaiza-Pérez et al.; Leong et al.) Isogenic subclones of MCF-7 resistant to the BZ DF203F (MCF-7DF203r), tamoxifen (MCF-7TAM1, MCF-7Her2-18) and Herceptin® (MCF-7Her2-18) were included.
as §6

For experiment [7], the system named is T47D. Description: γ-H2AX foci induction, T47D. The format is cell-based, human.
Experiment [8] concerns MCF10A. Briefly: MTT proliferation assay, MCF10A. The format is cell-based, human. On the procedure: as §7, §8
The test system of experiment [9] is MCF-7. Briefly: MTT proliferation assay, MCF-7. Format: cell-based, human. On the procedure:
as §6, §1, §7, §8

The subject of experiment [10] is MDA-MB-231. Description: γ-H2AX foci induction, MDA-MB-231. The format is cell-based, human.
Description: as §4, §5

Another experiment has as its system Hs578T. Briefly: aminoflavone sensitivity of Hs578T (FIGS. 6A and 6B). The format is cell-based, human.
Experiment [11] relates to T47D. Briefly: MTT proliferation assay, T47D. The format is cell-based, human. How it is done:
as §6, §7, §8

In experiment [12] the test system is MCF-7 HER2-18. Description: γ-H2AX foci induction, MCF-7 HER2-18. The format is cell-based, human.
The mark [13] stands for this setting: MCF-7, MTT, mean of three independent experiments.

Take `C[C@]12CC[C@@H]3c4ccc(O)cc4C[C@@H](CCCCCCCCC[S+]([O-])CCCC(F)(F)C(F)(F)F)[C@H]3[C@@H]1CC[C@@H]2O` (stereo partly drawn) [Faslodex®, fulvestrant]: the “cell growth inhibition compared to aminoflavone alone” value with MCF-7 cells is on record as “inhibited more greatly”.
Regarding `CC/C(=C(\c1ccc(O)cc1)c1ccc(OCCN(C)C)cc1)c1ccccc1` [4-OH-tamoxifen, reference compound], in the experiment on MCF-7 TAM1 [1] (MCF-7TAM1, serum starved, 10 days, plus E2), the “concentration causing growth inhibition” value is > 10 µM.
Consider `CC/C(=C(\c1ccccc1)c1ccc(OCCN(C)C)cc1)c1ccccc1` [tamoxifen], for which, in the experiment with MCF-7 cells, the “cell growth inhibition compared to aminoflavone alone” value was “inhibited more greatly”.
The term IC50 denotes the point on the concentration scale where inhibition reaches its midpoint. As for `Cc1c(F)c(N)c2c(=O)cc(-c3ccc(N)c(F)c3)oc2c1F` [aminoflavone], the IC50 with MCF-7 HER2-18 [2] (Homo sapiens) was 0.016 to 0.02 µM; in the experiment with MCF-7 HER2-18 [2] it was 0.02 µM; in the experiment on ER+MDA-MB-231 cells (MDA-MB-231 stably transfected with human estrogen receptor-α), 5 µM; with MCF10A [8] it was 3 µM; with MCF10A [8] (Homo sapiens, MCF-10A), 3 to 25 µM; in the experiment on MCF-7 [9] (Homo sapiens, MCF7, MCF-7, MTT, mean of three independent experiments), 0.016 to 0.02 µM. Further, the IC50 with MCF-7 [9] (setting [13]) came to 0.016 µM; in the experiment on MCF-7 TAM1 [1] (Homo sapiens, MCF7:TAM1, 240 h, MCF-7 TAM1, MTT 10 days, plus E2), 0.55 µM; in the experiment with T47D [11] (Homo sapiens, MTT) it was 0.014 µM. In addition, the IC100 in the experiment on MCF-7 HER2-18 [2] was ~300 nM and 375 nM; in the experiment with MDA-MB-231 [6] (MTT), >100 µM; in the experiment on MCF10A [8], 9 µM; with MCF-7 [9] (setting [13]), ~300 nM; in the experiment on MCF-7 TAM1 [1] (MCF-7 TAM1, MTT), 2 µM; in the experiment on T47D [11] (MTT) it was 20 nM. The “total growth inhibition (TGI)” value with NCI 60 cell line is ≥ 10 µM. Besides, the “γ-H2AX Focl” value in the experiment on MCF-7 [3] is “induces and yes”; with MCF-7 TAM1 [4], “induces and yes”; in the experiment on MCF10A [5] it was “no”; in the experiment with T47D [7], “yes”; in the experiment with MDA-MB-231 [10] it was “no”; in the experiment on MCF-7 HER2-18 [12], “yes”. In addition, the tumor growth inhibition in the experiment with MCF-7 xenografts was 85 % of control; with LTLC, “inhibits tumor growth”. Besides, the sensitivity to aminoflavone result in the experiment with MDA-MB-231 [6] (MTT 5 days (FIG. 2A)) is listed as “refractoriness”; with MCF-7DF203r, “essentially completely cross-resistant”; in the experiment on MCF-7 [9] (MCF-7, MTT 5 days (FIG. 2A)), “pronounced susceptibility”; with Hs578T, “resistant”; in the experiment with T47D [11] (MTT 5 days (FIG. 2A)), “pronounced susceptibility”. In the experiment on ER+MDA-MB-231 cells (ER+MDA-MB-231 vs parental and vector transfected cells), the “sensitivity compared to parental and vector transfected cells” value worked out at 5 times.
